Source: patent US10597388B2, “Pyridazinone herbicides” (FMC CORPORATION, priority 2014, dated 2020)

Tests used:
Experiment in all cases: Test C greenhouse herbicide test, pre- and postemergence
Assay type in all cases: in vivo
[1] = system: johnsongrass (Sorghum halepense)
How it was run: (§1)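 Preemergence: seeds sown in a loam soil–sand blend and sprayed with test chemicals in a non-phytotoxic solvent mixture containing surfactant. Postemergence: plants grown in peat-based medium and treated at 2 to 18 cm (1- to 4-leaf stage). After 13 to 15 d in a greenhouse, injury was visually rated 0–100 against controls.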

[2] = system: wheat (winter wheat, Triticum aestivum)
How it was run: as §1

[3] = system: ragweed (common ragweed, Ambrosia elatior)
How it was run: as §1

[4] = system: lambsquarters (Chenopodium album)
How it was run: as §1

[5] = system: blackgrass (Alopecurus myosuroides)
How it was run: as §1

[6] = system: waterhemp (common waterhemp, Amaranthus rudis)
How it was run: as §1

[7] = system: nutsedge, yellow (yellow nutsedge, Cyperus esculentus)
How it was run: as §1

[8] = system: ryegrass, Italian (Italian ryegrass, Lolium multiflorum)
How it was run: as §1

[9] = system: velvetleaf (Abutilon theophrasti)
How it was run: as §1

[10] = system: barnyardgrass (Echinochloa crus-galli)
How it was run: as §1

[11] = system: soybean (Glycine max)
How it was run: as §1

[12] = system: morningglory (Ipomoea coccinea)
How it was run: as §1

[13] = system: crabgrass, large (large crabgrass, Digitaria sanguinalis)
How it was run: as §1

[14] = system: pigweed (Amaranthus retroflexus)
How it was run: as §1

[15] = system: corn (Zea mays)
How it was run: as §1

[16] = Postemergence, 31 g ai/ha, 0 to 100 scale (0 no effect, 100 complete control)
[17] = Postemergence, 125 g ai/ha, scale 0 to 100, 0 is no effect, 100 is complete control
[18] = Postemergence, 250 g ai/ha, scale 0 to 100, 0 no effect, 100 complete control, 13 to 15 d
[19] = Preemergence, 31 g ai/ha, scale 0 to 100, 0 is no effect, 100 is complete control
[20] = Preemergence, 62 g ai/ha, scale 0 to 100, 0 is no effect, 100 is complete control
[21] = Preemergence, 125 g ai/ha, scale 0 to 100, 0 is no effect, 100 is complete control
[22] = Preemergence, 250 g ai/ha, scale 0 to 100, 0 no effect, 100 complete control
[23] = postemergence, 62 g ai/ha, scale 0 to 100, 0 no effect, 100 complete control

Cc1cc2ccccc2c(-c2c(O)c(C)nn(C)c2=O)c1C [Compound 34]
35: Plant response rating, Blackgrass [5, 17] | Plant response rating, Nutsedge, Yellow [7, 21] | Plant response rating, Barnyardgrass [10, 17] | Plant response rating, Barnyardgrass [10, 18]
95: Plant response rating, Ragweed [3, 17] | Plant response rating, Ragweed [3, 18] | Ragweed plant response rating [3, 22] | Plant response rating, Lambsquarters [4, 17] | Ryegrass, Italian plant response rating [8, 22] | Plant response rating, Morningglory [12, 17] | Morningglory plant response rating [12, 22]
0: Plant response rating, Johnsongrass [1, 19] | Plant response rating, Johnsongrass [1, 20] | Plant response rating, Johnsongrass [1, 21] | Plant response rating, Wheat [2, 18] | Plant response rating, Wheat [2, 20] | Plant response rating, Soybean [11, 21] | Plant response rating, Crabgrass, Large [13, 19] | Corn plant response rating [15, 16] | Plant response rating, Corn [15, 19] | Plant response rating, Corn [15, 20] | Corn plant response rating [15, 22]
10: Plant response rating, Wheat [2, 17] | Blackgrass plant response rating [5, 16] | Blackgrass plant response rating [5, 23] | Plant response rating, Soybean [11, 20] | Plant response rating, Crabgrass, Large [13, 20] | Crabgrass, Large plant response rating [13, 23] | Plant response rating, Corn [15, 21]
25: Wheat plant response rating [2, 22] | Plant response rating, Nutsedge, Yellow [7, 19] | Plant response rating, Nutsedge, Yellow [7, 20] | Barnyardgrass plant response rating [10, 23] | Plant response rating, Crabgrass, Large [13, 18] | Plant response rating, Crabgrass, Large [13, 21]
30: Crabgrass, Large plant response rating [13, 22]
75: Lambsquarters plant response rating [4, 22] | Barnyardgrass plant response rating [10, 22]
20: Johnsongrass plant response rating [1, 22] | Barnyardgrass plant response rating [10, 16] | Plant response rating, Crabgrass, Large [13, 17]
55: Plant response rating, Barnyardgrass [10, 20]
50: Plant response rating, Blackgrass [5, 20] | Velvetleaf plant response rating [9, 16]
90: Plant response rating, Ragweed [3, 21] | Lambsquarters plant response rating [4, 16] | Plant response rating, Lambsquarters [4, 20] | Lambsquarters plant response rating [4, 23] | Blackgrass plant response rating [5, 22] | Plant response rating, Waterhemp [6, 17] | Plant response rating, Ryegrass, Italian [8, 17] | Plant response rating, Ryegrass, Italian [8, 18] | Plant response rating, Velvetleaf [9, 18] | Pigweed plant response rating [14, 16]
45: Nutsedge, Yellow plant response rating [7, 16] | Plant response rating, Ryegrass, Italian [8, 19]
100: Plant response rating, Lambsquarters [4, 18] | Plant response rating, Waterhemp [6, 20] | Plant response rating, Waterhemp [6, 21] | Waterhemp plant response rating [6, 22] | Plant response rating, Velvetleaf [9, 17] | Plant response rating, Pigweed [14, 19] | Plant response rating, Pigweed [14, 20] | Plant response rating, Pigweed [14, 21] | Pigweed plant response rating [14, 22]
80: Plant response rating, Ragweed [3, 19] | Plant response rating, Ragweed [3, 20] | Plant response rating, Lambsquarters [4, 19] | Plant response rating, Lambsquarters [4, 21] | Ryegrass, Italian plant response rating [8, 16] | Ryegrass, Italian plant response rating [8, 23] | Plant response rating, Velvetleaf [9, 20] | Velvetleaf plant response rating [9, 23] | Plant response rating, Morningglory [12, 20] | Plant response rating, Pigweed [14, 17]
85: Ragweed plant response rating [3, 16] | Plant response rating, Blackgrass [5, 21] | Waterhemp plant response rating [6, 16] | Waterhemp plant response rating [6, 23] | Plant response rating, Nutsedge, Yellow [7, 17] | Plant response rating, Nutsedge, Yellow [7, 18] | Plant response rating, Ryegrass, Italian [8, 20] | Plant response rating, Ryegrass, Italian [8, 21] | Plant response rating, Velvetleaf [9, 21] | Morningglory plant response rating [12, 16] | Plant response rating, Morningglory [12, 21] | Pigweed plant response rating [14, 23]
15: Plant response rating, Soybean [11, 17]
65: Nutsedge, Yellow plant response rating [7, 22] | Plant response rating, Barnyardgrass [10, 21]
5: Johnsongrass plant response rating [1, 16] | Plant response rating, Johnsongrass [1, 17] | Plant response rating, Johnsongrass [1, 18] | Johnsongrass plant response rating [1, 23] | Wheat plant response rating [2, 16] | Plant response rating, Wheat [2, 21] | Wheat plant response rating [2, 23] | Plant response rating, Blackgrass [5, 19] | Soybean plant response rating [11, 16] | Plant response rating, Soybean [11, 18] | Soybean plant response rating [11, 22] | Soybean plant response rating [11, 23] | Crabgrass, Large plant response rating [13, 16] | Plant response rating, Corn [15, 17] | Plant response rating, Corn [15, 18] | Corn plant response rating [15, 23]
70: Plant response rating, Morningglory [12, 19]
98: Ragweed plant response rating [3, 23] | Plant response rating, Waterhemp [6, 18] | Velvetleaf plant response rating [9, 22] | Plant response rating, Morningglory [12, 18] | Morningglory plant response rating [12, 23] | Plant response rating, Pigweed [14, 18]
60: Plant response rating, Blackgrass [5, 18] | Nutsedge, Yellow plant response rating [7, 23] | Plant response rating, Barnyardgrass [10, 19]
